Measurements taken from ChEMBL document CHEMBL1201862, “PubChem BioAssay data set” (2004).
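Briefly, cells in 96-well plates were exposed to five compound concentrations for 48 h, and endpoints were estimated by linear interpolation. GI50 = concentration required for 50% inhibition of growth.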 The source made the active and inactive calls. No stated cut-off is given here; in the data, active = GI50 up to about 1.1 µM and inactive = higher.

Assays:
Assay in all cases: inhibition of tumour cell growth, NCI panel, 48 h
OVCAR-4 = system: OVCAR-4
RXF 393 = system: RXF 393
786-0 = system: 786-0
SK-OV-3 = system: SK-OV-3
A549 = system: A549
SF-268 = system: SF-268
MOLT-4 = system: MOLT-4
SN12C = system: SN12C
OVCAR-5 = system: OVCAR-5
KM12 = system: KM12
COLO 205 = system: COLO 205
TK-10 = system: TK-10
EKVX = system: EKVX
SR = system: SR
RPMI-8226 = system: RPMI-8226
NCI-H522 = system: NCI-H522
SK-MEL-5 = system: SK-MEL-5
HOP-92 = system: HOP-92

Measured: GI50

CCOC(=O)C1C(c2ccc(Br)cc2)N(Cc2ccccc2)C(c2ccc(Br)cc2)C(C(=O)OC)S1(=O)=O (configuration not stated)
inactive: OVCAR-4 29.1 µM | RXF 393 33.6 µM | 786-0 32.3 µM | SK-OV-3 > 100 µM | A549 76.9 µM | SF-268 39.6 µM | MOLT-4 > 100 µM | SN12C > 100 µM | OVCAR-5 > 100 µM | KM12 > 100 µM | COLO 205 > 100 µM | TK-10 > 100 µM | EKVX > 100 µM | SR 34.4 µM | RPMI-8226 32.7 µM | NCI-H522 50.6 µM

CCCNC(=O)C(C)(Cl)C(=O)c1ccccc1O (configuration not stated)
inactive: OVCAR-4 > 100 µM | RXF 393 > 100 µM | 786-0 > 100 µM | SK-OV-3 > 100 µM | SK-MEL-5 > 100 µM | A549 > 100 µM | SF-268 > 100 µM | MOLT-4 > 100 µM | SN12C > 100 µM | KM12 > 100 µM | COLO 205 > 100 µM | TK-10 > 100 µM | SR > 100 µM | RPMI-8226 > 100 µM | NCI-H522 > 100 µM

CN(CCN(C)C(=O)CCn1cc(F)c(=O)[nH]c1=O)C(=O)CCn1cc(F)c(=O)[nH]c1=O
inactive: OVCAR-4 > 100 µM | RXF 393 > 100 µM | 786-0 > 100 µM | SK-MEL-5 > 100 µM | A549 > 100 µM | SF-268 > 100 µM | MOLT-4 > 100 µM | SN12C > 100 µM | OVCAR-5 > 100 µM | KM12 > 100 µM | COLO 205 > 100 µM | TK-10 > 100 µM | EKVX > 100 µM | SR > 100 µM | RPMI-8226 > 100 µM | NCI-H522 3.16 µM

O=C1CC2CCN(C(=O)c3ccccc3)CC2CCN1.O=C1CCC2CC(C(=O)c3ccccc3)CCC2CN1 (configuration not stated)
inactive: OVCAR-4 > 100 µM | RXF 393 > 100 µM | 786-0 > 100 µM | SK-OV-3 > 100 µM | SK-MEL-5 42.6 µM | A549 > 100 µM | SF-268 > 100 µM | MOLT-4 > 100 µM | SN12C > 100 µM | OVCAR-5 > 100 µM | KM12 > 100 µM | COLO 205 > 100 µM | EKVX > 100 µM | SR > 100 µM | RPMI-8226 > 100 µM | NCI-H522 > 100 µM

CC(=O)OCC(OC(C)=O)C(OC(C)=O)C(OC(C)=O)C(=O)CNn1c(-c2ccc(C)cc2)nc2ccccc2c1=O (configuration not stated)
inactive: OVCAR-4 > 100 µM | RXF 393 > 100 µM | 786-0 > 100 µM | SK-OV-3 > 100 µM | SK-MEL-5 > 100 µM | A549 > 100 µM | SF-268 > 100 µM | MOLT-4 82.8 µM | SN12C 76 µM | OVCAR-5 > 100 µM | KM12 > 100 µM | COLO 205 > 100 µM | EKVX > 100 µM | SR 41.2 µM | RPMI-8226 39.4 µM | NCI-H522 57.9 µM

CN1CC(C(=O)C2C(=O)c3ccccc3C2=O)C(=O)C(=O)C(C(=O)C2C(=O)c3ccccc3C2=O)C1 (configuration not stated)
inactive: HOP-92 85.1 µM | 786-0 > 100 µM | SK-OV-3 > 100 µM | A549 > 100 µM | SF-268 > 100 µM | MOLT-4 > 100 µM | SN12C > 100 µM | OVCAR-5 > 100 µM | KM12 > 100 µM | COLO 205 > 100 µM | TK-10 > 100 µM | SR > 100 µM | NCI-H522 > 100 µM

COC(=O)[C@@H]1CSC(=S)N1C(=O)C[C@H]1CC=CC[C@H]1CC(=O)Sc1ccccc1
inactive: OVCAR-4 > 10 µM | RXF 393 14.2 µM | 786-0 17.5 µM | SK-OV-3 27.8 µM | A549 17.7 µM | SF-268 15.1 µM | MOLT-4 4.29 µM | SN12C 15.7 µM | OVCAR-5 19.1 µM | KM12 15.1 µM | COLO 205 19.5 µM | TK-10 > 10 µM | EKVX 17.4 µM | SR 8.99 µM | RPMI-8226 12.5 µM | NCI-H522 12 µM

O=C1CS(=O)(=O)C(c2cccc(Oc3ccccc3)c2)N1c1cccc(Cl)c1Cl (configuration not stated)
inactive: OVCAR-4 20.4 µM | RXF 393 25.1 µM | HOP-92 7.26 µM | 786-0 15 µM | SK-OV-3 67 µM | SK-MEL-5 18.2 µM | A549 > 100 µM | SF-268 21.5 µM | MOLT-4 20.2 µM | SN12C 19.8 µM | OVCAR-5 47.5 µM | KM12 26.7 µM | COLO 205 26.9 µM | TK-10 25.3 µM | EKVX 23.8 µM | SR 18.7 µM | NCI-H522 18 µM

COc1ccccc1NC(=O)C1=C(C)NC(C)=C(C(=O)Nc2ccccc2OC)C1c1ccc([N+](=O)[O-])cc1
inactive: OVCAR-4 56.2 µM | RXF 393 60.4 µM | 786-0 99.5 µM | SK-OV-3 > 100 µM | SK-MEL-5 30.7 µM | A549 > 100 µM | SF-268 > 100 µM | MOLT-4 7.23 µM | SN12C > 100 µM | OVCAR-5 22.4 µM | KM12 51.6 µM | COLO 205 56.2 µM | TK-10 74.5 µM | EKVX 82.6 µM | SR 67.5 µM | RPMI-8226 18.5 µM | NCI-H522 24.4 µM
